Laboratory results published in patent US10173982B2, “Picolinamides as fungicides” (Dow AgroSciences LLC, priority 2016, dated 2019).
Read-outs that look alike come from different tables or passages of the source.

What was measured:
[1] = test system: Zymoseptoria tritici; assay: Fungicidal activity: leaf blotch of wheat (SEPTTR), percent disease control on wheat seedlings; assay type: in vivo; details: for pest or weed control at 121.5 g/ha / pest or weed control at 100 ppm: Zymoseptoria tritici; for pest or weed control at 121.5 g/ha: LV (low volume) activity at 121.5 g/H; for pest or weed control at 100 ppm / SEPTTR 1DP disease control rating / SEPTTR 3DC disease control rating: HV (high volume) activity at 100 ppm
Method: Technical grades of materials were dissolved in acetone, which were then mixed with nine volumes of water containing 110 ppm Triton X-100. The fungicide solutions were applied onto wheat seedlings using an automated booth sprayer to run-off. All sprayed plants were allowed to air dry prior to further handling. All fungicides were evaluated using the aforementioned method for their activity vs. all target diseases, unless stated otherwise. Wheat leaf blotch and brown rust activity were also evaluated using track spray applications, in which case the fungicides were formulated as EC formulations, containing 0.1% Trycol 5941 in the spray solutions. Wheat plants (variety Yuma) were grown from seed in a greenhouse in 50% mineral soil/50% soil-less Metro mix until the first leaf was fully emerged, with 7-10 seedlings per pot. These plants were inoculated with an aqueous spore suspension of Zymoseptoria tritici either prior to or after fungicide treatments. After inoculation the plants were kept in 100% relative humidity (one day in a dark dew chamber followed by two to three days in a lighted dew chamber at 20° C.) to permit spores to germinate and infect the leaf. The plants were then transferred to a greenhouse set at 20° C. for disease to develop. When disease symptoms were fully expressed on the 1st leaves of untreated plants, infection levels were assessed on a scale of 0 to 100 percent disease severity. Percent disease control was calculated using the ratio of disease severity on treated plants relative to untreated plants.

[2] = test system: Puccinia triticina; assay: Fungicidal activity: wheat brown rust (PUCCRT), percent disease control on wheat seedlings; assay type: in vivo; details: for pest or weed control at 121.5 g/ha / pest or weed control at 100 ppm: Puccinia triticina; for pest or weed control at 121.5 g/ha: LV (low volume) activity at 121.5 g/H; for pest or weed control at 100 ppm / PUCCRT 1DP disease control rating / PUCCRT 3DC disease control rating: HV (high volume) activity at 100 ppm
Method: Technical grades of materials were dissolved in acetone, which were then mixed with nine volumes of water containing 110 ppm Triton X-100. The fungicide solutions were applied onto wheat seedlings using an automated booth sprayer to run-off. All sprayed plants were allowed to air dry prior to further handling. All fungicides were evaluated using the aforementioned method for their activity vs. all target diseases, unless stated otherwise. Wheat leaf blotch and brown rust activity were also evaluated using track spray applications, in which case the fungicides were formulated as EC formulations, containing 0.1% Trycol 5941 in the spray solutions. Wheat plants (variety Yuma) were grown from seed in a greenhouse in 50% mineral soil/50% soil-less Metro mix until the first leaf was fully emerged, with 7-10 seedlings per pot. These plants were inoculated with an aqueous spore suspension of Puccinia triticina either prior to or after fungicide treatments. After inoculation the plants were kept in a dark dew room at 22° C. with 100% relative humidity overnight to permit spores to germinate and infect the leaf. The plants were then transferred to a greenhouse set at 24° C. for disease to develop. Fungicide formulation, application and disease assessment followed the procedures as described in the Example A. Results of the evaluations are shown below in Table 4.

[3] = 24 h, 1 Day Protectant, read-out: SEPTTR 1DP disease control rating
[4] = 72 h, 3 Day Curative, read-out: SEPTTR 3DC disease control rating
[5] = 24 h, 1 Day Protectant, read-out: PUCCRT 1DP disease control rating
[6] = 72 h, 3 Day Curative, read-out: PUCCRT 3DC disease control rating

SMILES | pest or weed control at 100 ppm [1, 3] [%] | pest or weed control at 100 ppm [1, 4] [%] | pest or weed control at 100 ppm [2, 5] [%] | pest or weed control at 100 ppm [2, 6] [%] | other results
COc1ccnc(C(=O)N[C@@H](C)C(=O)O[C@@H](C)[C@@H](c2ccccc2)[S+]([O-])Cc2ccccc2)c1OC(C)=O (stereo partly drawn) [Compound 74] | – | – | – | – | pest or weed control at 121.5 g/ha [1, 3]: ≤ 0%; pest or weed control at 121.5 g/ha [1, 4]: ≤ 0%; pest or weed control at 121.5 g/ha [2, 5]: ≤ 0%; pest or weed control at 121.5 g/ha [2, 6]: ≤ 0%
COc1ccnc(C(=O)N[C@@H](C)C(=O)O[C@@H](C)[C@H](Sc2ccc(C)cc2C)c2ccccc2)c1O [Compound 44] | > 80 | ≤ 80 | > 80 | ≤ 80 | –
COc1ccnc(C(=O)N[C@@H](C)C(=O)O[C@@H](C)[C@H](Sc2ccccc2)c2ccc(C)cc2)c1O [Compound 53] | > 80 | > 80 | > 80 | > 80 | –
COc1ccnc(C(=O)N[C@@H](C)C(=O)O[C@@H](C)[C@H](Sc2ccccc2)c2ccc(F)cc2C)c1O [Compound 51] | > 80 | > 80 | > 80 | ≤ 80 | –
COc1ccnc(C(=O)N[C@@H](C)C(=O)O[C@@H](C)[C@H](Sc2ccc(F)cc2C)c2ccc(F)cc2C)c1O [Compound 49] | > 80 | > 80 | > 80 | ≤ 80 | –
COc1ccnc(C(=O)N[C@@H](C)C(=O)O[C@@H](C)[C@H](Sc2ccc(F)cc2)c2ccc(F)cc2C)c1OC(C)=O [Compound 75] | – | – | – | – | pest or weed control at 121.5 g/ha [1, 3]: > 80%; pest or weed control at 121.5 g/ha [1, 4]: > 80%; pest or weed control at 121.5 g/ha [2, 5]: ≤ 80%; pest or weed control at 121.5 g/ha [2, 6]: ≤ 0%
COc1ccnc(C(=O)N[C@@H](C)C(=O)O[C@@H](C)[C@H](SCc2ccccc2)c2ccccc2)c1O [Compound 45] | ≤ 0 | ≤ 80 | ≤ 80 | ≤ 80 | –
COc1ccnc(C(=O)N[C@@H](C)C(=O)O[C@@H](C)[C@H](Sc2ccccc2)c2ccc(F)cc2)c1O [Compound 39] | > 80 | > 80 | > 80 | > 80 | –
CCc1cc(F)ccc1[C@@H](Sc1ccccc1)[C@H](C)OC(=O)[C@H](C)NC(=O)c1nccc(OC)c1OC(C)=O [Compound 59] | – | – | – | – | pest or weed control at 121.5 g/ha [1, 3]: ≤ 80%; pest or weed control at 121.5 g/ha [1, 4]: ≤ 80%; pest or weed control at 121.5 g/ha [2, 5]: > 80%; pest or weed control at 121.5 g/ha [2, 6]: ≤ 80%
COc1ccnc(C(=O)N[C@@H](C)C(=O)O[C@@H](C)[C@@H](c2ccccc2)S(=O)(=O)c2ccc(F)cc2)c1O [Compound 41] | ≤ 80 | ≤ 80 | ≤ 0 | ≤ 0 | –
COc1ccnc(C(=O)N[C@@H](C)C(=O)O[C@@H](C)[C@H](Sc2ccc(C)cc2)c2ccccc2)c1O [Compound 36] | ≤ 80 | ≤ 80 | > 80 | > 80 | –
COc1ccnc(C(=O)N[C@@H](C)C(=O)O[C@@H](C)[C@@H](c2ccccc2)[S+]([O-])c2ccc(C)cc2C)c1OC(C)=O (stereo partly drawn) [Compound 73] | – | – | – | – | pest or weed control at 121.5 g/ha [1, 3]: ≤ 80%; pest or weed control at 121.5 g/ha [1, 4]: ≤ 0%; pest or weed control at 121.5 g/ha [2, 5]: ≤ 0%; pest or weed control at 121.5 g/ha [2, 6]: ≤ 0%
COc1ccnc(C(=O)N[C@@H](C)C(=O)O[C@@H](C)[C@H](Sc2cccc(Cl)c2)c2ccccc2)c1O [Compound 35] | ≤ 80 | ≤ 80 | > 80 | > 80 | –
CCc1cc(F)ccc1[C@@H](Sc1ccccc1)[C@H](C)OC(=O)[C@H](C)NC(=O)c1nccc(OC)c1O [Compound 57] | – | – | – | – | SEPTTR 1DP disease control rating ([1]; 1 Day Protectant): B (≤80); SEPTTR 3DC disease control rating ([1]; 3 Day Curative): A (>80); PUCCRT 1DP disease control rating ([2]; 1 Day Protectant): A (>80); PUCCRT 3DC disease control rating ([2]; 3 Day Curative): D (≤0)
COc1ccnc(C(=O)N[C@@H](C)C(=O)O[C@@H](C)[C@H](Sc2ccccc2)c2ccccc2)c1O [Compound 54] | ≤ 80 | > 80 | > 80 | ≤ 80 | –
COc1ccnc(C(=O)N[C@@H](C)C(=O)O[C@@H](C)[C@@H](c2ccccc2)S(=O)(=O)Cc2ccccc2)c1OC(C)=O [Compound 72] | – | – | – | – | pest or weed control at 121.5 g/ha [1, 3]: ≤ 80%; pest or weed control at 121.5 g/ha [1, 4]: ≤ 0%; pest or weed control at 121.5 g/ha [2, 5]: ≤ 0%; pest or weed control at 121.5 g/ha [2, 6]: ≤ 0%
COc1ccnc(C(=O)N[C@@H](C)C(=O)O[C@@H](C)[C@H](Sc2ccccc2)c2ccc(F)cc2)c1OC(C)=O [Compound 61] | – | – | – | – | pest or weed control at 121.5 g/ha [1, 3]: ≤ 80%; pest or weed control at 121.5 g/ha [1, 4]: ≤ 0%; pest or weed control at 121.5 g/ha [2, 5]: > 80%; pest or weed control at 121.5 g/ha [2, 6]: ≤ 80%
COc1ccnc(C(=O)N[C@@H](C)C(=O)O[C@@H](C)[C@H](Sc2ccc(F)cc2)c2ccccc2)c1O [Compound 37] | ≤ 0 | ≤ 80 | ≤ 80 | ≤ 80 | –
COc1ccnc(C(=S)N[C@@H](C)C(=O)O[C@@H](C)[C@H](Sc2ccc(F)cc2C)c2ccccc2)c1OC(C)=O [Compound 83] | – | – | – | – | pest or weed control at 121.5 g/ha [1, 3]: ≤ 80%; pest or weed control at 121.5 g/ha [1, 4]: ≤ 0%; pest or weed control at 121.5 g/ha [2, 5]: ≤ 80%; pest or weed control at 121.5 g/ha [2, 6]: ≤ 0%
COc1ccnc(C(=O)N[C@@H](C)C(=O)O[C@@H](C)[C@H](Sc2ccc(C(F)(F)F)cn2)c2ccccc2)c1O [Compound 52] | ≤ 0 | ≤ 80 | ≤ 80 | ≤ 80 | –
COc1ccnc(C(=O)N[C@@H](C)C(=O)O[C@@H](C)[C@H](SCC(C)C)c2ccccc2)c1O [Compound 47] | ≤ 0 | > 80 | ≤ 80 | ≤ 80 | –
COc1ccnc(C(=O)N[C@@H](C)C(=O)O[C@@H](C)[C@@H](c2ccccc2)[S+]([O-])c2ccc(F)cc2)c1O (stereo partly drawn) [Compound 42] | ≤ 0 | ≤ 80 | ≤ 0 | ≤ 0 | –
COc1ccnc(C(=O)N[C@@H](C)C(=O)O[C@@H](C)[C@H](Sc2ccc(F)cc2C)c2ccccc2)c1OC(C)=O [Compound 60] | – | – | – | – | pest or weed control at 121.5 g/ha [1, 3]: > 80%; pest or weed control at 121.5 g/ha [1, 4]: ≤ 0%; pest or weed control at 121.5 g/ha [2, 5]: > 80%; pest or weed control at 121.5 g/ha [2, 6]: ≤ 80%
CCc1cc(F)ccc1[C@@H](Sc1ccccc1)[C@H](C)OC(=O)[C@H](C)NC(=O)c1nccc(OC)c1O [Compound 40] | > 80 | > 80 | > 80 | – | PUCCRT 3DC disease control rating ([2]; 3 Day Curative): A (>80)
COc1ccnc(C(=O)N[C@@H](C)C(=O)O[C@@H](C)[C@H](Sc2ccc(F)cc2C)c2ccccc2)c1O [Compound 55] | – | – | – | – | SEPTTR 1DP disease control rating ([1]; 1 Day Protectant): A (>80); SEPTTR 3DC disease control rating ([1]; 3 Day Curative): B (≤80); PUCCRT 1DP disease control rating ([2]; 1 Day Protectant): A (>80); PUCCRT 3DC disease control rating ([2]; 3 Day Curative): D (≤0)
COc1ccnc(C(=O)N[C@@H](C)C(=O)O[C@@H](C)[C@H](Sc2ccc(F)cc2C)c2ccccc2)c1O [Compound 38] | > 80 | > 80 | > 80 | – | PUCCRT 3DC disease control rating ([2]; 3 Day Curative): A (>80)
COc1ccnc(C(=O)N[C@@H](C)C(=O)O[C@@H](C)[C@H](SC(C)C)c2ccccc2)c1O [Compound 46] | ≤ 0 | > 80 | ≤ 80 | ≤ 80 | –
